Common to all, as to assay: biochemical binding or enzymatic assay
Experiment [1] deals with T1, MAPKAPK2 (Homo sapiens, UniProt P49137).
T1 construct: purchased DiscoveRx KINOMEscan
To be noted: Novartis. The method, then:
(§1) Finally, the selectivity profile of i-CDK9 toward other non-CDK kinases was also assessed using the KINOMEscan platform. […] Except for CLK4, for which no suitable assay was available, the rest of the kinases plus a selected group of others were re-examined for the concentration-dependent effect of i-CDK9 in either functional kinase assays or binding assays. […] Indeed, it has recently been reported that DYRK1A acts as a Pol II CTD Kinase at its target gene promoters ([Di Vona et al., 2015]).

Experiment [2] addresses T2, TAOK3 (Homo sapiens, UniProt Q9H2K8).
T2 construct: purchased DiscoveRx KINOMEscan
T2 sequence (Q9H2K8 1-898): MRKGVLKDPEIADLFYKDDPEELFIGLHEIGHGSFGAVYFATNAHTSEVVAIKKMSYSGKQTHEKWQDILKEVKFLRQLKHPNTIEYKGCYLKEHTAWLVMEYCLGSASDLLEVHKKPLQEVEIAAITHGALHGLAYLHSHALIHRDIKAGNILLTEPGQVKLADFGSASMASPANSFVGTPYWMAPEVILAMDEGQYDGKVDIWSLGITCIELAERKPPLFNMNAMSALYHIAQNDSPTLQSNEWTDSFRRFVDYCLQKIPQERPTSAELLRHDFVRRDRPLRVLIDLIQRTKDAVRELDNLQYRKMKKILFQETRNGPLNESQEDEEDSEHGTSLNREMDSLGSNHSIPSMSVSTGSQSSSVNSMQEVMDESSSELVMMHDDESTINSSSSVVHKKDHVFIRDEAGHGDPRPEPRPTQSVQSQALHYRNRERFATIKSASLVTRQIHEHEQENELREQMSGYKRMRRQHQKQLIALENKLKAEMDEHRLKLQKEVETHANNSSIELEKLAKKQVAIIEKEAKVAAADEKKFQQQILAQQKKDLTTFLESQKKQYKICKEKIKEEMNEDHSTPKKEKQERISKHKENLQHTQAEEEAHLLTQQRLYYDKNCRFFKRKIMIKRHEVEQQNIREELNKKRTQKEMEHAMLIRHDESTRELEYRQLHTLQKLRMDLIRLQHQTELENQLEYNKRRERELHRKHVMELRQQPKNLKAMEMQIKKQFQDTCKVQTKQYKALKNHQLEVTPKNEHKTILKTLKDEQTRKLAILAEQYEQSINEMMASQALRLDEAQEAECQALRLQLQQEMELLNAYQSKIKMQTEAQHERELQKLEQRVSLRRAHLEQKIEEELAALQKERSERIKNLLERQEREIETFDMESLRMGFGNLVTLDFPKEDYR
The note with it: Millipore. The protocol: as §1

Experiment [3] concerns the target T3, LYN (Homo sapiens, UniProt P07948).
T3 construct: purchased DiscoveRx KINOMEscan
The note with it: Novartis. The method, then:
as §1

Experiment [4] addresses T4, PDPK1 (Homo sapiens, UniProt O15530).
T4 construct: purchased DiscoveRx KINOMEscan
T4 sequence (O15530 1-556): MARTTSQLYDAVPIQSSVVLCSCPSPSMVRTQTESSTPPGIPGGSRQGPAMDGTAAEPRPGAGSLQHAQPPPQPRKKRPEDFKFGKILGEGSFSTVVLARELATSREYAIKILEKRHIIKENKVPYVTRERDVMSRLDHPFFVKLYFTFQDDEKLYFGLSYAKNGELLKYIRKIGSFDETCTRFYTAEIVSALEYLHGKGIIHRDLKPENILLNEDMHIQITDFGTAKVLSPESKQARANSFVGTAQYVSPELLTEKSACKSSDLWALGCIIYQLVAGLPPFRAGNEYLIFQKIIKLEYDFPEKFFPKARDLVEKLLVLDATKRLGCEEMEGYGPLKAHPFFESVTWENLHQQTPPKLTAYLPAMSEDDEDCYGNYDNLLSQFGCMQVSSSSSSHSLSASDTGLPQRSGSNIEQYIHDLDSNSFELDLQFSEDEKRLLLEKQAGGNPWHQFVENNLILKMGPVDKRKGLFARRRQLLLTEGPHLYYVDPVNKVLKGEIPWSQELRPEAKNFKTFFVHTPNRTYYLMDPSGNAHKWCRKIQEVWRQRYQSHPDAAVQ
The note with it: Novartis. The method, then:
as §1

Experiment [5] addresses T5, GSK3B (Homo sapiens, UniProt P49841).
T5 construct: purchased DiscoveRx KINOMEscan
To be noted: Novartis. The method, then:
as §1

For experiment [6], the target named is T6, FGFR1 (Homo sapiens, UniProt P11362).
T6 construct: purchased DiscoveRx KINOMEscan
The note with it: Novartis. The protocol: as §1

In experiment [7] the target is T7, PCTK2 (Homo sapiens, UniProt Q00537).
T7 construct: purchased DiscoveRx KINOMEscan
The note with it: Ambit. The method, then: as §1

In experiment [8] the target is T8, EGFR (Homo sapiens, UniProt P00533).
T8 construct: purchased DiscoveRx KINOMEscan
The note with it: Novartis. The method, then:
as §1

In experiment [9] the target is S6K1 (Homo sapiens, UniProt P23443). To be noted: Novartis. The method, then:
as §1

Experiment [10] has as its target T9, EPHA4 (Homo sapiens, UniProt P54764).
T9 construct: purchased DiscoveRx KINOMEscan
The note with it: Novartis. The method, then:
as §1

In experiment [11] the target is T10, MAPKAPK5 (Homo sapiens, UniProt Q8IW41).
T10 construct: purchased DiscoveRx KINOMEscan
T10 sequence (Q8IW41 1-473): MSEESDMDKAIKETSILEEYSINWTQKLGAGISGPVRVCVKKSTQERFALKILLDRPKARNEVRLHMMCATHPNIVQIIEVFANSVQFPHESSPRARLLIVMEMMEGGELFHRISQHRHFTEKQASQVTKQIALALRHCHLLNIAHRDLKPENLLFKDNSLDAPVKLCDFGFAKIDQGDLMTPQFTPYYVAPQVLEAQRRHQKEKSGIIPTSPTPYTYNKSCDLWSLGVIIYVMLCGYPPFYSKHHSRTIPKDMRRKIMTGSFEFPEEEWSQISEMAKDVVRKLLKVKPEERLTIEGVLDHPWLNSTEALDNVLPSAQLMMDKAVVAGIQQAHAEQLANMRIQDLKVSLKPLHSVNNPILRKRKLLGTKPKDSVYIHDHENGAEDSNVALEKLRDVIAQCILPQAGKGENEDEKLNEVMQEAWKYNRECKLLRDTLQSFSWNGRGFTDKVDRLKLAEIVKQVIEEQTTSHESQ
The note with it: Novartis. The protocol: as §1

Experiment [12] concerns the target T11, ERK1 (Homo sapiens, UniProt P27361).
T11 construct: purchased DiscoveRx KINOMEscan
To be noted: Novartis. The protocol: as §1

The target of experiment [13] is T12, LCK (Homo sapiens, UniProt P06239).
T12 construct: purchased DiscoveRx KINOMEscan
The note with it: Novartis. The method, then:
as §1

Experiment [14] deals with T13, PCTK1 (Homo sapiens, UniProt Q00536).
T13 construct: purchased DiscoveRx KINOMEscan
The note with it: Ambit. The method, then:
as §1

By IC50 is commonly meant the concentration that gives 50% inhibition.

Some results are limits rather than exact numbers.

T8 sequence (P00533 25-1210): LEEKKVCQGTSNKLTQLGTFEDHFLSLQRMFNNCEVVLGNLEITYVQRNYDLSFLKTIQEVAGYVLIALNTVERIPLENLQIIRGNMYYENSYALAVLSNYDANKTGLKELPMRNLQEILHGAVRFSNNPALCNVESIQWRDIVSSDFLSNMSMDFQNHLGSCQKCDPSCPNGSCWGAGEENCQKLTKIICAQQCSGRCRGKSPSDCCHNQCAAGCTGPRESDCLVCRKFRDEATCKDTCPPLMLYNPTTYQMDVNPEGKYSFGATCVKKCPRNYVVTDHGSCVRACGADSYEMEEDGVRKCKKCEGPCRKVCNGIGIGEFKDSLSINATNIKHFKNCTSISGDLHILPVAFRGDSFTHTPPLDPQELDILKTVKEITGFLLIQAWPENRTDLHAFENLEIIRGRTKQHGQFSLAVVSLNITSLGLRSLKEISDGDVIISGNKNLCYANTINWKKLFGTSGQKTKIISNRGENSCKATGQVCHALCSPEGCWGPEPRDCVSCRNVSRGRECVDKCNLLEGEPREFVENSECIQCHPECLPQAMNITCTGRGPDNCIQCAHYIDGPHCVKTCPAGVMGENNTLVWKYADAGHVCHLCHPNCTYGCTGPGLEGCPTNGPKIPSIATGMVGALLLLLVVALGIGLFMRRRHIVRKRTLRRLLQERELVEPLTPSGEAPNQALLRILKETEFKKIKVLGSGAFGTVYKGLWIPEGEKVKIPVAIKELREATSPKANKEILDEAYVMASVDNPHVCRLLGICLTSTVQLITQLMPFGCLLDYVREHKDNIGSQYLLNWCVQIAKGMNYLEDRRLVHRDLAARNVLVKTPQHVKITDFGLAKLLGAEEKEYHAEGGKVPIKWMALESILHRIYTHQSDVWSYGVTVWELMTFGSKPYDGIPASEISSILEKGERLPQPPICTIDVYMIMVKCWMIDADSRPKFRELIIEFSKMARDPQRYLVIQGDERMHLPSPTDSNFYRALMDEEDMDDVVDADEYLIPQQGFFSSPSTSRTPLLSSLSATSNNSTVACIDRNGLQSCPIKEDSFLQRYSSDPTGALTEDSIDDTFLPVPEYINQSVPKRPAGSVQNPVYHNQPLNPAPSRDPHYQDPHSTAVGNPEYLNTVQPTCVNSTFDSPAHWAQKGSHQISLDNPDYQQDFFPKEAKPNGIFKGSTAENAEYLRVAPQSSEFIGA
S6K1, sequence (P23443 whole entry): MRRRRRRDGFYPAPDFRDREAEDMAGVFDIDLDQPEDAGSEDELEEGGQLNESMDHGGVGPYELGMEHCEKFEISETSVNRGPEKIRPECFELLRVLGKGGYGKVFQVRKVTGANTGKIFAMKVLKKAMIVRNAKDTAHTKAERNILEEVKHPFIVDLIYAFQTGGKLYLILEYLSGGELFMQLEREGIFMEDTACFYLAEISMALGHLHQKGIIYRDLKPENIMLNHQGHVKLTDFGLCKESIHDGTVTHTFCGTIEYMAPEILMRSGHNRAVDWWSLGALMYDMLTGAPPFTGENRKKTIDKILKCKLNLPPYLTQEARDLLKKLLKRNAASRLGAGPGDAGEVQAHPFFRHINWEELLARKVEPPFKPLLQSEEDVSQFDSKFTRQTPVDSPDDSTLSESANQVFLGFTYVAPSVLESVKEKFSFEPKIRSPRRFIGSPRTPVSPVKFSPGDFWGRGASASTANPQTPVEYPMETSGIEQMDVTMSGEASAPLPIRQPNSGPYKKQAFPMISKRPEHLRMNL
T13 sequence (Q00536 whole entry): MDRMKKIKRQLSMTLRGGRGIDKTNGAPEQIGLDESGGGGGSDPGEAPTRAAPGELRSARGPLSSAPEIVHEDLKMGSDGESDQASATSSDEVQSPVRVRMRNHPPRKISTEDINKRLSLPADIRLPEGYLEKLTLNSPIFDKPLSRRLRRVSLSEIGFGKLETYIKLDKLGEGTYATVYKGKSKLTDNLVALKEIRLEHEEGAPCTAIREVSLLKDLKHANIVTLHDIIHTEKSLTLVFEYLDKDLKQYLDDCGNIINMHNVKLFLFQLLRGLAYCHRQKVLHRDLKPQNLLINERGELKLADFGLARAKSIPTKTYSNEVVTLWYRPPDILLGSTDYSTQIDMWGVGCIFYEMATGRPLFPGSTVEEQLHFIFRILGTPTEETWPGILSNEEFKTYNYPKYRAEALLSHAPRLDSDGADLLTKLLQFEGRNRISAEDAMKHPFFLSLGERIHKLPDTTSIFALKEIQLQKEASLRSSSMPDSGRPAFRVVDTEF
T9 sequence (P54764 20-986): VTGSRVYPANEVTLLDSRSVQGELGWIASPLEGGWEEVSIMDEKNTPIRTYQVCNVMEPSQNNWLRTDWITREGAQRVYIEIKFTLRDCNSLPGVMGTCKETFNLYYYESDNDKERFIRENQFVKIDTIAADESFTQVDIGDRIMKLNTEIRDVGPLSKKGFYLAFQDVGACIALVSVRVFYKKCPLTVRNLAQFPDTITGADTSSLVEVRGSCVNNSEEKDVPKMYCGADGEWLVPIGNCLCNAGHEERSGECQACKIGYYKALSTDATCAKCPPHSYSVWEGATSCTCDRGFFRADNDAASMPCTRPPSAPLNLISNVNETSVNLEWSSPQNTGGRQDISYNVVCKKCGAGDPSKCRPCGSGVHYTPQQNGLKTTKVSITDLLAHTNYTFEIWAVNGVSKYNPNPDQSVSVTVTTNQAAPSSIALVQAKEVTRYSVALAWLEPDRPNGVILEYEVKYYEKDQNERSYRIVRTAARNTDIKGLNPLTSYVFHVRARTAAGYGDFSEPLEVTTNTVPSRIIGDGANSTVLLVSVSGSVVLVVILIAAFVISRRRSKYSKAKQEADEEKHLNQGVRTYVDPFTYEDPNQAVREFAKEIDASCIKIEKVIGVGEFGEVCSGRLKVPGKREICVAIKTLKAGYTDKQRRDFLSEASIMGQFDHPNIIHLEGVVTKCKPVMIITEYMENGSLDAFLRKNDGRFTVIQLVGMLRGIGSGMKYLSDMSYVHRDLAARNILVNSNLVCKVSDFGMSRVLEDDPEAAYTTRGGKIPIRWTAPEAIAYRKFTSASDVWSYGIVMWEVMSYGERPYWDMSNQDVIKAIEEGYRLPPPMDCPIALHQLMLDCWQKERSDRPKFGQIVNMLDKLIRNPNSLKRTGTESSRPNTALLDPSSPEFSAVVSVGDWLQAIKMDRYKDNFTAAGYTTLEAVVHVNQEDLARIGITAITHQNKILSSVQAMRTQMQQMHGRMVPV
T11 sequence (P27361 whole entry): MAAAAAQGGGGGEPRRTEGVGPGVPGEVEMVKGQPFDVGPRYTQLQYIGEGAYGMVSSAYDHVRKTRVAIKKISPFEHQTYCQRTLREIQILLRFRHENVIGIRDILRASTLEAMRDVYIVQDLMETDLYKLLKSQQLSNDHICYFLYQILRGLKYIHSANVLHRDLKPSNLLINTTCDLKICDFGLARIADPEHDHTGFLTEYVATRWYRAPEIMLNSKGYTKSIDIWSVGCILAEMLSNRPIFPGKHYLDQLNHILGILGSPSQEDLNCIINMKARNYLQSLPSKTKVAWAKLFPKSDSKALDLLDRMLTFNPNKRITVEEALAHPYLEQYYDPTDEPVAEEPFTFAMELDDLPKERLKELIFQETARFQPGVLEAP
T5 sequence (P49841 whole entry): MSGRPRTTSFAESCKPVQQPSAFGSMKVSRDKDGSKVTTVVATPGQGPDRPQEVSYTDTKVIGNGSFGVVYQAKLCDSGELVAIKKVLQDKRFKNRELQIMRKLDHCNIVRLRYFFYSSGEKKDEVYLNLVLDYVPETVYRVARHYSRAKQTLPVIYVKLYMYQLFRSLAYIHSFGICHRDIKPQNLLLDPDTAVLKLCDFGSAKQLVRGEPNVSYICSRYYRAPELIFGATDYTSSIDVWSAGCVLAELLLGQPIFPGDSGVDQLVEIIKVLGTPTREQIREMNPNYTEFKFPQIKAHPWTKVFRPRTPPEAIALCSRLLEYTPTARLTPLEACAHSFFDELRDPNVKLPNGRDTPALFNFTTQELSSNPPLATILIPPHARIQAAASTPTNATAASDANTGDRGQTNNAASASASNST
T6 sequence (P11362 22-822): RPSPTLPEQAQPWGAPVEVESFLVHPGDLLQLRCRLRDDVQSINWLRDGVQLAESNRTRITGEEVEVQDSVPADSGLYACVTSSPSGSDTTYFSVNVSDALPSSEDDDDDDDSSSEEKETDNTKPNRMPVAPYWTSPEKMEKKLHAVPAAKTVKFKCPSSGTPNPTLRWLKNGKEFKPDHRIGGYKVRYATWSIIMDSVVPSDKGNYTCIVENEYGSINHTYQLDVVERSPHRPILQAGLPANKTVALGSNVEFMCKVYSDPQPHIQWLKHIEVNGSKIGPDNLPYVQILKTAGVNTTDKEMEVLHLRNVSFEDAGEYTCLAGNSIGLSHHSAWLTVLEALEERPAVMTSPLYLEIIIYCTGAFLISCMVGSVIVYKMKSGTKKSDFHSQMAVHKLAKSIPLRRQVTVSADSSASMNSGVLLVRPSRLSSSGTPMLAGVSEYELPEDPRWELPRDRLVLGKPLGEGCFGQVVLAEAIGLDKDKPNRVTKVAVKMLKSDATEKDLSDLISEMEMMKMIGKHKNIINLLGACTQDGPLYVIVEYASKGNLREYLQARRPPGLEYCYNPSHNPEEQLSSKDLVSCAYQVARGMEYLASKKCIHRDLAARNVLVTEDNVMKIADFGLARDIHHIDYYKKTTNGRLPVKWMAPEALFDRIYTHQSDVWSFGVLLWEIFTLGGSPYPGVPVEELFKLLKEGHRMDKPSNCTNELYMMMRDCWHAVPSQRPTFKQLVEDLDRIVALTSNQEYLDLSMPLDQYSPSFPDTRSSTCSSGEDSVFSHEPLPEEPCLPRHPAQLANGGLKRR

`N[C@H]1CC[C@H](Nc2cc(-c3cccc(NCc4cccc(F)c4)n3)c(Cl)cn2)CC1` [i-CDK9, N2′-(trans-4-aminocyclohexyl)-5′-chloro-N6-(3-fluorobenzyl)-2,4′-bipyridine-2′,6-diamine]: the IC50 was over 10 µM in experiment [1]; 1.08 µM in experiment [2]; over 10 µM in [3]; over 10 µM in [4]; 1.6 µM in [5]; over 10 µM in [6]. Besides, the IC50 in experiment [7] was over 0.079 µM; in experiment [8], over 10 µM; in experiment [9], over 10 µM; in [10] it was over 10 µM; in [11], over 10 µM; in experiment [12], over 10 µM. Also, the IC50 in experiment [13] was over 10 µM; in [14], over 0.14 µM.

Source of the values: publication PMC4490784, “Compensatory induction of MYC expression by sustained CDK9 inhibition via a BRD4-dependent mechanism” (eLife, 2015).
